In patent US20210308228A1, “METHOD FOR REDUCING THE OCCURRENCE OF THROMBOSIS OR THROMBOEMBOLISM” (THE BOARD OF REGENTS OF THE UNIVERSITY OF TEXAS SYSTEM, priority 2020, published 2021):
Marks after values point to notes of the source that are not given here.

How the values were obtained:
[1] = test system: thrombin generation; assay: Thrombin generation by calibrated automated thrombogram (CAT) in plasma treated ex vivo; type: biochemical, human; settings: for Delta ETP (%) / Delta Lagtime (%) / Delta Peak (%) / Delta Rate (%) / Delta ttPeak (%): enoxaparin 0.13 U/mL, median change vs baseline
From the text: (§1) Citrated plasma samples were thawed immediately prior to use. First, plasma from healthy, uninjured volunteers was used to optimize ex vivo dosing of enoxaparin. […] Given that the inventors spiked plasma with an enoxaparin dose of 0.13 IU/mL, our target anti-FXa level in response to enoxaparin was defined as 0.13 IU/mL. The responses to enoxaparin between healthy uninjured volunteers and trauma patients were compared by treating all plasma samples ex vivo with 0.13 IU/mL of enoxaparin. Trauma patient samples were additionally supplemented with AT using either FFP at a dose of 30% volume or AT concentrate in the form of THROMBATE III®, provided by Grifols, up to 80%, 120%, 150%, 180%, and 200% final concentration based on baseline values. This was done in an effort to improve patient plasma responses to enoxaparin to the levels observed in healthy controls. Similar to our previous work, the inventors chose FFP at a dose of 30% volume to model the effects of transfusing six units of plasma. Calculations were based on the activity (IUs) provided by the manufacturer for a given lot of THROMB ATE III® (approximately 500 IUs/10 mL) and the patient's baseline AT activity levels. AT supplementation was confirmed by measuring AT activity using ACL-TOP. Thrombin generation and anti-FXa levels were measured to assess the response to enoxaparin and supplementation with AT. Healthy volunteer plasma served as an uninjured control for normal AT, anti-FXa, and thrombin generation levels before and after treatment with enoxaparin.
(§2) AT activity and anti-FXa levels were determined chromogenically using an ACL-TOP Coagulation Analyzer (Instrumentation Laboratory, Bedford Mass.). Thrombin generation was measured using a calibrated automated thrombogram (CAT) (Thermo Fisher Scientific, Waltham Mass.) as previously described. Relevant parameters resulting from CAT analysis include lag time (the time to initiation of thrombin generation; min), peak (the highest amount of thrombin generated; nM), time to peak [ttpeak] (the time it takes to achieve the peak; min), endogenous thrombin potential [ETP] (the total amount of thrombin generated over time; […]), and rate (the velocity of thrombin generation dictated by the slope of the thrombin generation curve; nM/min).

[2] = test system: FXa; assay: Anti-FXa levels determined chromogenically (ACL-TOP) in plasma treated ex vivo with enoxaparin; type: biochemical, human; settings: for Anti FXa levels (IU/mL): median
From the text: as §1, §2

[3] = Trauma Patients (N = 100) plasma
[4] = Healthy Donors (N = 15) plasma, enoxaparin 0.13 U/mL
[5] = No PE patients (N = 46) plasma, enoxaparin 0.13 U/mL
[6] = PE patients (N = 54) plasma, enoxaparin 0.13 U/mL
[7] = Trauma Patients (N = 100) plasma, enoxaparin 0.13 U/mL

enoxaparin
Delta ETP (%) ([1]; Healthy Donors (N = 15) plasma): −43% | Delta Lagtime (%) ([1]; Healthy Donors (N = 15) plasma): 6.6% | Delta Peak (%) ([1]; Healthy Donors (N = 15) plasma): −55% | Delta Rate (%) ([1]; Healthy Donors (N = 15) plasma): −65% | Delta ttPeak (%) ([1]; Healthy Donors (N = 15) plasma): 17% | Delta ETP (%) ([1]; No PE patients (N = 46) plasma): −15.6% | Delta Lagtime (%) ([1]; No PE patients (N = 46) plasma): 6.6% | Delta Peak (%) ([1]; No PE patients (N = 46) plasma): −30.6% | Delta Rate (%) ([1]; No PE patients (N = 46) plasma): −45.4% | Delta ttPeak (%) ([1]; No PE patients (N = 46) plasma): 13.0% | Delta ETP (%) ([1]; PE patients (N = 54) plasma): −13.2% | Delta Lagtime (%) ([1]; PE patients (N = 54) plasma): 7.9% | Delta Peak (%) ([1]; PE patients (N = 54) plasma): −20.7% | Delta Rate (%) ([1]; PE patients (N = 54) plasma): −34.2% | Delta ttPeak (%) ([1]; PE patients (N = 54) plasma): 10.7% | Delta ETP (%) [1, 3]: −14% | Delta Lagtime (%) [1, 3]: 7.9% | Delta Peak (%) [1, 3]: −24% | Delta Rate (%) [1, 3]: −39% | Delta ttPeak (%) [1, 3]: 12% | reduction in peak thrombin ([1]; plasma of patients who did develop PE, ex vivo enoxaparin): 20.7% | median reduction in peak thrombin ([1]; plasma of patients who did not develop PE, ex vivo enoxaparin): 30.6% | Rate Anti FXa ≥ 0.13 (number) [2, 4]: 15 | Rate Anti FXa ≥ 0.13 (percentage) [2, 4]: (100%) | Anti FXa levels (IU/mL) [2, 4]: 0.16 IU/mL | Rate Anti FXa ≥ 0.13 (number) [2, 5]: 26 | Rate Anti FXa ≥ 0.13 (percentage) [2, 5]: (57%) | Anti FXa levels (IU/mL) [2, 5]: 0.14 IU/mL | Rate Anti FXa ≥ 0.13 (number) [2, 6]: 24 | Rate Anti FXa ≥ 0.13 (percentage) [2, 6]: (44%) | Anti FXa levels (IU/mL) [2, 6]: 0.13 IU/mL | Rate Anti FXa ≥ 0.13 (number) [2, 7]: 59 | Rate Anti FXa ≥ 0.13 (percentage) ([2]; Trauma Patients (N = 100) plasma, enoxaparin 0.13 U/mL alone): (59%)* | Rate Anti FXa ≥ 0.13 (percentage) ([2]; Trauma Patients (N = 100) plasma, enoxaparin 0.13 U/mL alone, listed as enoxaparin): 59% | Anti FXa levels (IU/mL) [2, 7]: 0.13 IU/mL
